From publication PMC3646678, “Sodium-calcium exchangers in rat trigeminal ganglion neurons” (Molecular Pain, 2013)
pIC50: −log10 of the molar value.

Tested on: T1, NCX1 (Na+-Ca2+ exchanger)
T1 construct: gene Slc8a1
Experiment: fura-2 Ca2+ influx by reverse NCX activity (Li+ for Na+ substitution) in native rat TG neurons
Type: cell-based

pIC50 | Compound
7.52 | CCOc1ccc(Oc2ccc(OCc3cc(F)ccc3F)cc2)c(N)c1 [SEA0400, 2-[4-[(2,5-difluorophenyl)methoxy]phenoxy]-5-ethoxyaniline]
6.29 | CCOC(=O)C1CSC(Cc2ccc(OCc3ccc([N+](=O)[O-])cc3)cc2)N1 (stereo not drawn) [SN-6]
5.51 | N=C(N)SCCc1ccc(OCc2ccc([N+](=O)[O-])cc2)cc1 [KB-R7943]
